This is an account of results in patent publication US5696093A (CRC for Biopharmaceutical Research Pty Limited, priority 1994, dated 1997).

By IC50 is commonly meant the concentration at which inhibition is half-maximal. Higher therefore signals lower potency. As usually defined, the EC50 is the concentration giving half of the maximal effect.

“Also recorded” adds a separate entry of the source. Where two headings read alike, the source gives them in different places. Where no end group is shown, it is not given here.

Assay [1] deals with internal maxillary artery. Briefly: Local intra arterial injection, vascular resistance in the internal maxillary artery (Rma). The class given is in vivo. The note with it: dog; for effect on Rma, in words / rank order potency on a molar basis (reduction of Rma): local intra arterial injection; for vascular effect after pretreatment with adrenoceptor blockers and atropine: phentolamine, propranolol and atropine pretreatment. As to the method:
Experiments were performed on twelve adult mixed breed dogs of both sexes weighing between 4 and 9 kg. These experiments were approved by the institutional animal care and ethics committee. The dogs were anaesthetised with pentobarbitone sodium (35 mg kg^-1 i.v.). The trachea was cannulated low in the neck and the animals were artifically ventilated. A catheter connected to a […] blood pressure transducer was placed in a femoral artery for systemic blood pressure monitoring. Another catheter was inserted in a femoral vein for administration of compounds and further doses of anaesthetic as required (0.5-1 ml of a 1-in-5 dilution of pentobarbitone). The left cervical vagus nerve was dissected high in the neck, the vagal sheath was removed and then the sympathetic nerve was separated from the vagal trunk. […] The left zygomatic arch was removed and the […] the sphenopalatine ganglion were exposed by a procedure similar to the one described by […] & Wilson (1973). Bipolar platinum electrodes connected to a Grass S 88 stimulator (Grass Instruments, Quincy, USA) were used for stimulation of the proximal portion of the cervical sympathetic nerve and the cut peripheral end of the parasympathetic nerve. The identification of cervical sympathetic nerve was confirmed by observing dilation of the pupil with its electrical stimulation. The left external carotid artery was […] up to the internal maxillary artery. The main arterial branches located beyond to the superficial temporal artery were ligated as described previously by Lacroix et al. (1988), a procedure which leaves the internal maxillary artery flow supplying only the nasal mucosa. The superficial temporal artery was cannulated for selective injection of agents into the main nasal arterial blood supply. The nasal arterial blood flow was recorded with a transonic flow probe (3SB454) placed around the internal maxillary artery and connected to a T206 ultrasonic blood flowmeter (Transonic System Inc., N.Y., U.S.A.). All parameters were continuously recorded on a Grass polygraph model 7C in all experiments. The animals were allowed a one hour intervention-free period following completion of surgery. Group 1 (n+8): […] The administration of saline alone had no measurable effect. An interval of 5 min was allowed between successive injections. Fifteen minutes after the completion of the ACh, VIP, PH1 and NA injections, parasympathetic nerve stimulations (5 V, 5 ms) were performed at continuous frequencies of 10, 20 and 30 Hz, each for 10 sec. Each stimulation was performed 3 min after the blood flow in the internal maxillary artery returned to base line from the preceding stimulation. Sympathetic nerve stimulation (15 V, 5 ms) was then performed continuously at 10 Hz for 3 min. Parasympathetic nerve stimulations were repeated five minutes, thirty minutes and then one hour after sympathetic nerve stimulation. This entire protocol was repeated after pretreatment with the α-adrenoceptor antagonist phentolamine (0.5 mg kg^-1 h^-1), the β-adrenoceptor antagonist propranolol (1 mg kg^-1) and the parasympathetic muscarinic receptor blocker atropine (0.5 mg kg^-1), all delivered by local intra arterial (i.a.) injection. […] Analysis of results: changes of the nasal arterial blood flow were expressed in terms of vascular resistance in the maxillary artery (Rma), obtained by dividing the driving mean arterial blood pressure in the femoral artery by the peak value of the blood flow volume rate in the maxillary artery. Before each experiment a zero flow in the maxillary artery was obtained by clamping the artery upstream to the transonic probe for 30 sec. The duration of the responses were given in second sand calculated from the end of the electrical stimulation until return to former basal values. All data are presented as mean ± standard error of the […]. Statistical differences were evaluated using one way ANOVA test.

Assay [2] deals with T1, prejunctional (neuropeptide Y Y2) receptor (Rattus norvegicus, UniProt Q9ERC0).
T1 construct: from tissue; host or cells: whole anaesthetised Wistar rat (cardiac vagal nerve endings)
T1 sequence (Q9ERC0 1-381): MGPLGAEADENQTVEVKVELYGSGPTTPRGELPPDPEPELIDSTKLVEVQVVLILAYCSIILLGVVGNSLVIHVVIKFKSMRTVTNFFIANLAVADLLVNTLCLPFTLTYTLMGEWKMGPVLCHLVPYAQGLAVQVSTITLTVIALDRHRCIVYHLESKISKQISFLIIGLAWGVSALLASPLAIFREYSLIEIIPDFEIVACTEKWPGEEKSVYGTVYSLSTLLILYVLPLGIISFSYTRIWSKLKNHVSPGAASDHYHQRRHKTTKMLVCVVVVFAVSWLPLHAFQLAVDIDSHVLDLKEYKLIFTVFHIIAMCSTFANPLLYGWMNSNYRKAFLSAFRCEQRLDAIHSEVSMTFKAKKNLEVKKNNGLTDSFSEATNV
Briefly: Inhibition of cardiac vagal action in anaesthetised rats (prejunctional activity). The format is in vivo. Particulars: for inhibition of cardiac vagal action (prejunctional effect), in words / EC50: anaesthetised rats, i.v.; for EC50: log of the dose which evokes 50% of the maximum response, mean ± SEM, five rats. Here is the method:
Experiments were carried out on adult rats (Wistar) of both sexes (250-350 g), anaesthetised with sodium pentobarbitone (Nembutal, Boehringer-Ingleheim; 60 mg/kg, i.p.). […] The femoral vein was cannulated for administration of peptides and further doses of anaesthetic. The left femoral artery was cannulated to record arterial pressure. Both vagus nerves were cut. […] The electrocardiogram was measured using needle electrodes and monitored on one channel of an osciloscope. Pulse interval (the period between successive beats of the heart) was recorded beat-by-beat by triggering from ECG. Pulse interval and arterial pressure were recorded on the pen recorder.
Dose-response curves were constructed from group data for all rats. Because of the long time-course of action of the peptides tested, not all peptides were given to each rat.

Assay [3] addresses T2, neuropeptide Y Y2 receptor (Homo sapiens, UniProt P49146).
T2 construct: endogenous in cells; host or cells: SMS-KAN human neuroblastoma cells (whole cells; gift of Dr Thue Schwartz)
T2 sequence (P49146 1-381): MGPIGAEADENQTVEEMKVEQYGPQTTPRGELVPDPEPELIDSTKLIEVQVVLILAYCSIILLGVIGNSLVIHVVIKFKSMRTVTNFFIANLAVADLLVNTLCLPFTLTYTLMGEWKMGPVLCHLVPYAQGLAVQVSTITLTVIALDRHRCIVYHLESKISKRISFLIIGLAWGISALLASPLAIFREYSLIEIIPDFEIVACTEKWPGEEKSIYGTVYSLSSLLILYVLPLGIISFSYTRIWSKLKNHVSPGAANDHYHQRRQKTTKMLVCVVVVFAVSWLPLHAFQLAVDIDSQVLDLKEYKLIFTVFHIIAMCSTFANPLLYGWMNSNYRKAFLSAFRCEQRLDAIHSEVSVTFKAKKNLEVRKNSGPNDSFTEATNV
The assay can be described thus: Competition with radiolabelled peptide YY for binding to SMS-KAN cells.
Text: (§1) All media and materials for tissue culture were obtained from Cytosystems (Castle Hill, NSW, Australia). Cells were harvested by treatment with 0.2% EDTA in phosphate buffered saline and immediately used in the binding assay described.

The target of assay [4] is T3, postjunctional (neuropeptide Y Y1) receptor (Rattus norvegicus, UniProt P21555).
T3 construct: from tissue; host or cells: whole anaesthetised Wistar rat (vasculature)
T3 sequence (P21555 1-382): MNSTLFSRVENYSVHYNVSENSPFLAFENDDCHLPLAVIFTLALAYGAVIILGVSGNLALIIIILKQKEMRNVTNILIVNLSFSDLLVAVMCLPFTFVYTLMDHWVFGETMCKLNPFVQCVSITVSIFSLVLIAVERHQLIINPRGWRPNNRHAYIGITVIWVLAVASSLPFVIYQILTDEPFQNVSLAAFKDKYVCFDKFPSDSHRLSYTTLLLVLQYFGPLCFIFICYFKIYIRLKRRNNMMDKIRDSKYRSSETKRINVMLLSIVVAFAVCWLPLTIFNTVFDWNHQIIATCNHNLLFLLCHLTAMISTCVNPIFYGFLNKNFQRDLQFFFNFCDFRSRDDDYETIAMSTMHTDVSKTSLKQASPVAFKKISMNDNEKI
Briefly: Pressor action (arterial blood pressure) in anaesthetised rats (postjunctional activity). The class given is in vivo. The note with it: i.v.
Experimental: Experiments were carried out on adult rats (Wistar) of both sexes (250-350 g), anaesthetised with sodium pentobarbitone (Nembutal, Boehringer-Ingleheim; 60 mg/kg, i.p.). The trachea was cannulated and the animal artifically ventilated. The femoral vein was cannulated for administration of peptides and further doses of anaesthetic. The left femoral artery was cannulated to record arterial pressure. Both vagus nerves were cut. […] The frequency was chosen to increase pulse interval by approximately 100 ms, a submaximal effect on this variable. The electrocardiogram was measured using needle electrodes and monitored on one channel of an osciloscope. Pulse interval (the period between successive beats of the heart) was recorded beat-by-beat by triggering from ECG. Pulse interval and arterial pressure were recorded on the pen recorder. […]
As an indication of prejunctional activity two parameters were measured; the maximum percent inhibition of the increase in pulse interval evoked by stimulation of the vagus nerve following injection of peptide (Δ pulse interval, % inhibition) and the time to half recovery of this effect (T50). For pressor action, an indicator of postjunctional activity, two parameters were also measured; the peak pressor response following injection of peptide (Δ blood pressure) and the duration of the increase in blood pressure (Duration). […]

For assay [5], the target named is T4, neuropeptide Y Y1 receptor (Homo sapiens, UniProt P25929).
T4 construct: host or cells: SK-N-MC human neuroblastoma cells (whole cells)
T4 sequence (P25929 1-384): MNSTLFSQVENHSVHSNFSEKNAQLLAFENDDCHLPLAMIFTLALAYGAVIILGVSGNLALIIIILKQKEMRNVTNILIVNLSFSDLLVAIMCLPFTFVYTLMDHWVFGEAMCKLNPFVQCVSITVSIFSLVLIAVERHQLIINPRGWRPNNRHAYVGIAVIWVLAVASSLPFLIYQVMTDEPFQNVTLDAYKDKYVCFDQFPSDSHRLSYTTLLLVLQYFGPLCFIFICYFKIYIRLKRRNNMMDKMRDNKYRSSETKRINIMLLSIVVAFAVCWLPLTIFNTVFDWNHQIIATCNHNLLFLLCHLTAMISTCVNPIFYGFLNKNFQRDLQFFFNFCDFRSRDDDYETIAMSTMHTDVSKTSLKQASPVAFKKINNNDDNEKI
Briefly: Competition with radiolabelled peptide YY for binding to SK-N-MC cells.
Text: as §1

Assay [6] relates to endogenous ATP receptor. Briefly: Calcium response to ATP in Y1 receptor-transfected CHO cells. The format is cell-based, Chinese Hamster. The note with it: 1 μM ATP. As to the method: Cells were suspended in loading media (Modified RPMI, 10 mM Hepes, 1% newborn fetal calf serum) and incubated in a spinner flask at 37° C., for 2.5 hours at 1×10^6 cells/ml. Cells were then treated with […] Fura-2 AM for 30 minutes at 37° C., washed twice with loading media and resuspended at 5×10^6 cells/ml. Immediately before use in fluorescence spectroscopy, cells were recovered by centrifugation at 1000 rpm and resuspended at 1×10^6 cells/ml in a modified Krebs buffer (135 mM NaCl, 4.7 mM KCl; 1.2 /nM MgSO4, 1.2 mM KH2 PO4, 5 mM NaHCO3, 1 mM CaCl2, 2.8 mM glucose, and 10 mM Hepes, pH 7.4) containing 1 mM sulphinpyrazone. Fluorescence recordings were made on an Hitachi fluorescence spectrometer (F4010) at 340 nm (excitation) and 505 nm (emission) over 10 minutes with slit widths of 5 nm and a response time of 2 seconds. Intracellular calcium levels were quantitated using equations described (Grynkiewicz et al., 1985).

Assay [7] relates to dog nasal mucosa. The assay can be described thus: Parasympathetic nerve-evoked nasal vasodilatation in anaesthetised dogs. The format is in vivo. The note with it: for parasympathetic vasodilatation after administration, in words: i.v.
Assay [8] addresses T1, prejunctional (neuropeptide Y Y2) receptor. Particulars: Potter et al., 1989; cited from earlier work.
Assay [9] relates to internal maxillary artery. Briefly: Arterial blood pressure and nasal arterial blood flow in anaesthetised dogs after i.v. peptide. The class given is in vivo. The note with it: dog, 8 nmol kg^-1 i.v.
Experimental: Experiments were performed on twelve adult mixed breed dogs of both sexes weighing between 4 and 9 kg. These experiments were approved by the institutional animal care and ethics committee. The dogs were anaesthetised with pentobarbitone sodium (35 mg kg^-1 i.v.). The trachea was cannulated low in the neck and the animals were artifically ventilated. A catheter connected to a Statham P23AC blood pressure transducer was placed in a femoral artery for systemic blood pressure monitoring. Another catheter was inserted in a femoral vein for administration of compounds and further doses of anaesthetic as required (0.5-1 ml of a 1-in-5 dilution of pentobarbitone). The left cervical vagus nerve was dissected high in the neck, the vagal sheath was removed and then the sympathetic nerve was separated from the vagal trunk. […] Bipolar platinum electrodes connected to a Grass S 88 stimulator (Grass Instruments, Quincy, USA) were used for stimulation of the proximal portion of the cervical sympathetic nerve and the cut peripheral end of the parasympathetic nerve. The identification of cervical sympathetic nerve was confirmed by observing dilation of the pupil with its electrical stimulation. The left external carotid artery was disserted up to the internal maxillary artery. […] The superficial temporal artery was cannulated for selective injection of agents into the main nasal arterial blood supply. The nasal arterial blood flow was recorded with a transonic flow probe (3SB454) placed around the internal maxillary artery and connected to a T206 ultrasonic blood flowmeter (Transonic System Inc., N.Y., U.S.A.). All parameters were continuously recorded on a Grass polygraph model 7C in all experiments. The animals were allowed a one hour intervention-free period following completion of surgery.
Group 1 (n+8): Solutions of ACh (5.5×10^-11 to 5.5×10^-8 mol). VIP (3×10^-11 to 3×10^-9 mol), PH1 (3.3×10^-11 to 1.6×10^-8 mol) and NA (6×10^-11 mol to 6×10^-8 mol) in 1 ml of saline, were infused into the superficial temporal artery over a period of 15 sec. […]

For peptide histidine isoleucine [PHI], in [1], the “effect on Rma, in words” value is on record as “dose-dependant reductions of the Rma”; the “rank order potency on a molar basis (reduction of Rma)” value is “ACh>VIP>PHI”; the “vascular effect after pretreatment with adrenoceptor blockers and atropine” value (shortened to “vascular effect after pretreatment”) was “remained intact”.

With “LRHYLNLLTRQRY-NH2 [[Leu^28, Leu^31] neuropeptide Y-(24-36)]”, the “duration of transient response (T50)” value in assay [2] (Table 1 footnote, no EC50 calculated) is under 2 min. Also, the “inhibition of cardiac vagal action (prejunctional effect), in words” value is “significant inhibitory or prejunctional actions but these effects are transient” in [2] and “significant inhibitory effects on cardiac vagal action” in assay [2] (listed as [Leu^27, Leu^31 ] neuropeptide Y-(24-36)). The IC50 in [3] amounted to 12.7 ± 1.2 nM. Further, the “pressor effect (Δ blood pressure), in words” value in assay [4] is recorded as “did not significantly increase blood pressure at any dose tested”. Moreover, the “binding to Y1 receptor on SK-N-MC cells, in words” value in [5] is “neither N-acetyl [Leu^28, Leu^31 ] neuropeptide Y-(24-36) or [Leu^28, Leu^31 ] neuropeptide Y-(24-36) shoed significant binding”.

For `CC(=O)OCC[N+](C)(C)C.[Cl-]` [ACh, acetylcholine chloride], in [1], the “effect on Rma, in words” value is listed as “dose-dependant reductions of the Rma”; the “rank order potency on a molar basis (reduction of Rma)” value is “ACh>VIP>PHI”; the “vascular effect after pretreatment” value is “virtually abolished”.

With `Nc1ncnc2c1ncn2[C@@H]1O[C@H](COP(=O)(O)OP(=O)(O)OP(=O)(O)O)[C@@H](O)[C@H]1O` [ATP], in [6], the “calcium response to ATP after addition of N-acetyl [Leu28, Leu31] neuropeptide Y-(24-36)” value is given as 33.8 nM and the “calcium response to ATP before addition of N-acetyl [Leu28, Leu31] neuropeptide Y-(24-36)” value turned out to be 46.3 nM.

“Ac-LRHYLNLLTRQRY-NH2 [N-acetyl [Leu^28, Leu^31] neuropeptide Y-(24-36)]”: the results for the concentration for a half-maximal effect (EC50) in assay [2] (read-out: EC50 for T50 (time to half recovery of vagal inhibition) (converted)) and in assay [2] (read-out: EC50 for Δ pulse interval (converted)) were 2.51 nM and 3.16 nM, respectively. The compound further returned an IC50 in assay [3] of 3.9 ± 0.4 nM.

Take vasoactive intestinal polypeptide [VIP]: in assay [1], the “effect on Rma, in words” value is “dose-dependant reductions of the Rma”; the “rank order potency on a molar basis (reduction of Rma)” value is “ACh>VIP>PHI”; the “vascular effect after pretreatment” value is listed as “remained intact”.

Turning to `C[N+](C)(C)CC[N+]1(C)Cc2c(Cl)c(Cl)c(Cl)c(Cl)c2C1` [chlorisondamine], the “vasodilatation evoked by vidian nerve stimulation after ganglion blocker” value in assay [7] (2 mg kg^-1, i.v.) is reported as “inhibition of vasodilatation”.

Turning to neuropeptide Y-(13-32), the “prejunctional activity in vivo, earlier study” value in [8] was “inactive in vivo”.

With `NC[C@H](O)c1ccc(O)c(O)c1` [NA], in [1], the “effect on Rma, in words” value is listed as “dose-dependant increases in Rma”; the “vascular effect after pretreatment” value is given as “virtually abolished”.

In the case of “[Leu^31, Pro^34 ] neuropeptide Y [[Leu^31, Pro^34] NPY]”, the “parasympathetic vasodilatation after administration, in words” value in assay [7] (Y1 agonist 8 nmol kg^-1, Y2 agonist 20 nmol kg^-1) is “no influence on the parasympathetic nerve-evoked vasodilatation; also recorded: no influence on the subsequent parasympathetic vasodilatation”; in [7] (Y1 agonist 8 nmol kg^-1, Y2 agonist 20 nmol kg^-1, Pro^31 ] NPY), “not modified”. For the same compound, the “duration of the blood pressure increase” value in [9] is listed as “more than 7 min”. For the same compound, in [9], the “reduction of blood flow in the internal maxillary artery (nasal mucosa blood flow)” value is listed as about 20%. The “increase in arterial blood pressure” value in assay [9] (after phentolamine, propranolol and atropine) is 23±2.8 mmHg.
